Publication PMC11191095, “QSAR Reveals Decreased Lipophilicity of Polar Residues Determines the Selectivity of Antimicrobial Peptide Activity” (ACS Omega, 2024)
Where a SMILES comes first, the peptide text is derived from it.

Assays:
Test in all cases: microbe, parasite or virus in culture
C. tropicalis NCPF 8760 = format: cell-based; details: NCPF 8760, 20 h
Procedure: (§1) Antimicrobial activity was evaluated against a panel of 18 pathogens consisting of eight Gram-negative strains (E. coli NCTC 12923, E. coli LEC001, Pseudomonas aeruginosa PAO1, P. aeruginosa NCTC 13437, Acinetobacter baumannii ATCC 17978, A. baumannii AYE, Klebsiella pneumoniae M6, K. pneumoniae NCTC 13368), four Gram-positive strains (Staphylococcus aureus ATCC 9144, S. aureus NCTC 13616, S. aureus USA300, S. aureus 1199B) and six fungi (Candida auris TDG 1912, C. albicans NCPF 8018, C. krusei NCPF 3876, C. tropicalis NCPF 8760, and C. parapsilosis NCPF 3209). Pathogens were grown in noncation adjusted Mueller Hinton broth (MHB, for bacteria) or Roswell Park Memorial Institute (RPMI 1640) + 2% glucose (for fungi) at 37 °C with 180 rpm shaking and maintained on solid media (tryptic soy agar for bacteria and Sabouraud dextrose agar for fungi). For an antibiogram, see Suppl.
(§2) The 46 peptides were serially diluted (128 to 2 μg/mL) in media down polypropylene 96-well plates. Bacteria or fungi, diluted from an overnight culture to an OD600 of 0.01, were added to the serially diluted peptides at a 1:1 ratio resulting in a starting cell density of ∼5 × 10^5 CFU/mL. Plates were incubated at 37 °C for 20 h, and the optical density was determined spectrophotometrically at 600 nm. Minimum inhibition concentrations (MICs) were determined from a minimum of three biological repeats and are reported in μg/mL as well as μM. […] The MIC50 or MIC90 is defined as the lowest peptide concentration that results in 50% or 90% growth inhibition over a 20 h treatment period, respectively.

C. krusei NCPF 3876 = format: cell-based; details: NCPF 3876, 20 h
Procedure: as §1, §2

C. glabrata NCPF 8018 = format: cell-based; details: NCPF 8018, 20 h
Procedure: as §1, §2

C. albicans NCPF 3281 = format: cell-based; details: NCPF 3281, 20 h
Procedure: as §1, §2

[1] = tested on: C. parapsilosis NCPF 3209; format: cell-based; details: NCPF 3209, 20 h
Procedure: as §1, §2

C. auris TDG 1912 = format: cell-based, Candida auris; details: TDG 1912, 20 h
Procedure: as §1, §2

P. aeruginosa NCTC 13437 = format: cell-based, Pseudomonas aeruginosa
Procedure: as §1, §2

A. baumannii ATCC 17978 = format: cell-based, Acinetobacter baumannii
Procedure: as §1, §2

A. baumannii AYE = format: cell-based, Acinetobacter baumannii; details: 20 h
Procedure: as §1, §2

K. pneumoniae NCTC 13368 = format: cell-based, Klebsiella pneumoniae
Procedure: as §1, §2

K. pneumoniae M6 = format: cell-based, Klebsiella pneumoniae
Procedure: as §1, §2

E. coli NCTC 12923 = format: cell-based, Escherichia coli
Procedure: as §1, §2

E. coli LEC001 = format: cell-based, Escherichia coli
Procedure: as §1, §2

S. aureus (MRSA) USA300 = format: cell-based, Staphylococcus aureus; details: USA300, 20 h
Procedure: as §1, §2

[2] = tested on: S. aureus (MSSA) ATCC 9144; format: cell-based, Staphylococcus aureus; details: ATCC 9144, 20 h
Procedure: as §1, §2

[3] = tested on: S. aureus (MRSA) NCTC 13616; format: cell-based, Staphylococcus aureus
Procedure: as §1, §2

S. aureus (MRSA) 1199B = format: cell-based, Staphylococcus aureus; details: S. aureus (MRSA) 1199B (R); shown in µM
Procedure: as §1, §2

P. aeruginosa PAO1 = format: cell-based, Pseudomonas aeruginosa
Procedure: as §1, §2

Row | Molecule | Modal MIC50 (C. tropicalis NCPF 8760) | Modal MIC90 (C. tropicalis NCPF 8760) | Modal MIC50 (C. krusei NCPF 3876) | Modal MIC90 (C. krusei NCPF 3876) | Modal MIC50 (C. glabrata NCPF 8018) | Modal MIC90 (C. glabrata NCPF 8018) | Modal MIC50 (C. albicans NCPF 3281) | Modal MIC90 (C. albicans NCPF 3281) | Modal MIC50 [1] | Modal MIC90 [1] | Modal MIC50 (C. auris TDG 1912) | Modal MIC90 (C. auris TDG 1912) | Modal MIC (P. aeruginosa NCTC 13437; NCTC 13437, 20 h) | Modal MIC (A. baumannii ATCC 17978; ATCC 17978, 20 h) | Modal MIC (A. baumannii AYE; AYE) | Modal MIC (K. pneumoniae NCTC 13368; NCTC 13368, 20 h) | Modal MIC (K. pneumoniae M6; M6, 20 h) | Modal MIC (E. coli NCTC 12923; NCTC 12923, 20 h) | Modal MIC (E. coli LEC001; LEC001, 20 h) | Modal MIC [2] | further results
1 | CC[C@H](C)[C@H](NC(=O)[C@H](CCCCN)NC(=O)[C@H](CC(C)C)NC(=O)CNC(=O)[C@H](C)NC(=O)[C@H](CCCCN)NC(=O)[C@H](CC(C)C)NC(=O)[C@H](C)NC(=O)[C@H](CCCCN)NC(=O)CNC(=O)[C@H](CC(C)C)NC(=O)[C@H](Cc1ccccc1)NC(=O)[C@H](CO)NC(=O)[C@H](C)NC(=O)[C@H](CC(C)C)NC(=O)CN)C(=O)NCC(=O)N[C@@H](CO)C(=O)N[C@@H](Cc1c[nH]cn1)C(=O)N[C@@H](CC(C)C)C(=O)N[C@@H](CC(C)C)C(=O)NCC(=O)NCC(=O)N[C@@H](C)C(=O)N1CCC[C@H]1C(=O)N[C@@H](CCC(N)=O)C(=O)O [CPF-P2] (H-GLASFLGKALKAGLKIGSHLLGGAPQ-OH) | 5.8 µM | 5.8 µM | 23 µM | 23 µM | > 46 µM | > 46 µM | > 46 µM | > 46 µM | > 46 µM | > 46 µM | > 46 µM | > 46 µM | 46 µM | 1.4 µM | 2.9 µM | 46 µM | 46 µM | 2.9 µM | 5.8 µM | 1.4 µM | Modal MIC (S. aureus (MRSA) USA300): 2.9 µM; Modal MIC ([3]; NCTC 13616, 20 h): 1.4 µM
2 | CC[C@H](C)[C@H](NC(=O)[C@H](CCCCN)NC(=O)[C@H](CC(C)C)NC(=O)CNC(=O)[C@H](C)NC(=O)[C@H](CCCCN)NC(=O)[C@H](CC(C)C)NC(=O)[C@H](C)NC(=O)[C@H](CCCCN)NC(=O)CNC(=O)[C@H](CC(C)C)NC(=O)[C@@H](N)Cc1ccccc1)C(=O)NCC(=O)N[C@@H](CO)C(=O)N[C@@H](Cc1c[nH]cn1)C(=O)N[C@@H](CC(C)C)C(N)=O [CPF-P2a] (H-FLGKALKAGLKIGSHL-NH2) | > 74 µM | > 74 µM | > 74 µM | > 74 µM | > 74 µM | > 74 µM | > 74 µM | > 74 µM | > 74 µM | > 74 µM | > 74 µM | > 74 µM | – | 18.6 µM | 37.1 µM | – | – | 18.6 µM | 37.1 µM | – | Modal MIC (S. aureus (MRSA) 1199B): > 74 µM
3 | CC[C@H](C)[C@H](NC(=O)CNC(=O)[C@H](CCCNC(=N)N)NC(=O)[C@@H](N)Cc1c[nH]c2ccccc12)C(=O)N[C@@H](CCCNC(=N)N)C(=O)NCC(=O)N[C@@H](Cc1ccc(O)cc1)C(=O)N[C@@H](CCCCN)C(=O)NCC(=O)NCC(=O)N[C@@H](Cc1ccc(O)cc1)C(=O)N[C@H](C(=O)NCC(=O)N[C@@H](CCCNC(=N)N)C(=O)N[C@@H](Cc1ccccc1)C(=O)N[C@@H](CCCCN)C(=O)N[C@@H](CCC(N)=O)C(=O)N[C@H](C(=O)N[C@@H](CCCCN)C(=O)N[C@@H](Cc1ccc(O)cc1)C(N)=O)[C@@H](C)O)[C@@H](C)O [W-OmB-Ca] (H-WRGIRGYKGGYTGRFKQTKY-NH2) | > 52.5 µM | > 52.5 µM | > 52.5 µM | > 52.5 µM | > 52.5 µM | > 52.5 µM | > 52.5 µM | > 52.5 µM | > 52.5 µM | > 52.5 µM | – | – | – | 26.2 µM | 13.1 µM | – | – | 52.5 µM | – | 52.5 µM | –
4 | CC[C@H](C)[C@H](NC(=O)CNC(=O)[C@H](CO)NC(=O)[C@@H](N)Cc1c[nH]c2ccccc12)C(=O)N[C@@H](CCCNC(=N)N)C(=O)NCC(=O)N[C@@H](Cc1ccc(O)cc1)C(=O)N[C@@H](CCCCN)C(=O)NCC(=O)NCC(=O)N[C@@H](Cc1ccc(O)cc1)C(=O)N[C@@H](CCCCN)C(=O)NCC(=O)N[C@@H](CC(C)C)C(=O)N[C@@H](Cc1ccccc1)C(=O)N[C@@H](CCCCN)C(=O)N[C@@H](CCC(N)=O)C(=O)N[C@H](C(=O)N[C@@H](CC(N)=O)C(=O)N[C@@H](Cc1ccc(O)cc1)C(N)=O)[C@@H](C)O [W-OmC-Ca] (H-WSGIRGYKGGYKGLFKQTNY-NH2) | > 54.3 µM | > 54.3 µM | > 54.3 µM | > 54.3 µM | > 54.3 µM | > 54.3 µM | > 54.3 µM | > 54.3 µM | > 54.3 µM | > 54.3 µM | – | – | – | 54.3 µM | 54.3 µM | – | – | 54.3 µM | – | 54.3 µM | –
5 | CC[C@H](C)[C@H](NC(=O)[C@H](CCCCN)NC(=O)[C@H](CO)NC(=O)[C@H](C)NC(=O)[C@H](Cc1c[nH]c2ccccc12)NC(=O)CN)C(=O)NCC(=O)N[C@@H](CCC(N)=O)C(=O)N[C@H](C(=O)N[C@@H](CC(C)C)C(=O)NCC(=O)N[C@@H](CCCCN)C(=O)N[C@H](C(=O)N[C@@H](C)C(=O)N[C@@H](CCCCN)C(=O)N[C@H](C(=O)NCC(=O)N[C@@H](CC(C)C)C(=O)N[C@@H](CCCCN)C(=O)N[C@@H](CCC(=O)O)C(=O)N[C@@H](CC(C)C)C(=O)N[C@H](C(=O)N[C@@H](CCC(N)=O)C(=O)N1CCC[C@H]1C(=O)N[C@@H](CCCCN)C(=O)O)[C@@H](C)CC)C(C)C)[C@@H](C)CC)[C@@H](C)O [XPF] (H-GWASKIGQTLGKIAKVGLKELIQPK-OH) | 11.6 µM | 11.6 µM | > 46.5 µM | > 46.5 µM | > 46.5 µM | > 46.5 µM | > 46.5 µM | > 46.5 µM | > 46.5 µM | > 46.5 µM | – | – | 46.5 µM | 1.5 µM | 1.5 µM | 11.6 µM | 23.2 µM | 1.5 µM | 1.5 µM | 11.6 µM | Modal MIC (P. aeruginosa PAO1; PAO1, 20 h): 46.5 µM; Modal MIC (S. aureus (MRSA) USA300): 46.5 µM; Modal MIC ([3]; NCTC 13616, 20 h): 46.5 µM
6 | Colistin [reference compound] | – | – | – | – | – | – | – | – | – | – | – | – | – | – | – | – | – | – | – | – | Modal MIC (P. aeruginosa NCTC 13437; P. aeruginosa NCTC 13437 (R), MHB, 37 °C, 20 h, OD600, min. three biological repeats): 4 µg/mL; Modal MIC (P. aeruginosa PAO1; P. aeruginosa PAO1 (S), MHB, 37 °C, 20 h, OD600, min. three biological repeats): 2 µg/mL; Modal MIC (A. baumannii ATCC 17978; A. baumannii ATCC 17978 (S), MHB, 37 °C, 20 h, OD600, min. three biological repeats): 1 µg/mL; Modal MIC (A. baumannii AYE; A. baumannii AYE (R), MHB, 37 °C, OD600, min. three biological repeats): 1 µg/mL; Modal MIC (K. pneumoniae NCTC 13368; K. pneumoniae NCTC 13368 (R), MHB, 37 °C, 20 h, OD600, min. three biological repeats): 1 µg/mL; Modal MIC (K. pneumoniae M6; K. pneumoniae M6 (S), MHB, 37 °C, 20 h, OD600, min. three biological repeats): 2 µg/mL; Modal MIC (E. coli NCTC 12923; E. coli NCTC 12923 (S), MHB, ~5×10^5 CFU/mL, 37 °C, 20 h, OD600, min. three biological repeats): 0.0625 µg/mL; Modal MIC (E. coli LEC001; E. coli LEC001 (R), MHB, 37 °C, 20 h, OD600, min. three biological repeats): 2 µg/mL; Modal MIC ([3]; S. aureus (MRSA) NCTC 13616 (R), MHB, 37 °C, 20 h, OD600, min. three biological repeats): > 128 µg/mL
